The text below walks through data of US5234934A, “Aminopropanol derivatives, process for their preparation and pharmaceutical compositions comprising the same” (priority 1989, dated 1993).

Where two headings read alike, the source gives them in different places.

Series [1] has as its system coronary insufficiency caused by vasopressine. As to the kind of experiment: antianginal effect on rats (vasopressine coronary insufficiency, Nieschulz). Particulars: iv., rats, vasopressine 1 NE/kg iv. It is filed as in vivo, rat. As to the method:
The test was carried out by using rats weighing 180 to 220 g. The animals were narcotised by chloralose urethane (70 to 700 mg/kg ip.). The ECG alterations were registered in standard II lead with the aid of needle electrodes. The antianginal effect was measured with Nieschultz's method. The coronary insufficiency was caused by vasopressine (1 NE/kg, iv.). The size of the T-wave was measured before and after administration of vasopressine in both the control and test groups. The compounds of the invention were administered 2 minutes before the administration of vasopressine. (Nieschulz, O., Popendiker, K., Hoffmann, I.: Arzneimittel-Forschung 5, 680/1955/)

Series [2] concerns nervus ischiadicus. Briefly: local analgesic effect (Truant d'Amato's method). It counts as in vivo. The settings on record: for EC50 %: 0.2 ml injected around nervus ischiadicus. As to the method: The tests were carried out according to Truant d'Amato's method. 0.2 ml of test material was injected around the nervus ischiadicus in the middle of femur with a needle of 1 cm length. The criterion of analgesic effect was the lack of the motoric control of foot muscles.
The duration of effect was registered and the 50 percentile effective concentration (EC50) was calculated on the basis of the dose-effect curve. Lidocain was used as comparative material. (Truant, A. P., D'Amato, D.: Acta Chir Scand. 116, 351/1958/)

Series [3] deals with gastric acid secretion. As to the kind of experiment: gastric acid secretion test (Shay). Particulars: rats. It is filed as in vivo, rat. As for the experimental part: The test was carried out according to Shay's operational method. […] On the day of the test the pylorus of the animals was bound under ether narcosis. The test compounds were administered orally 3 hours before the operation. The animals of the control group were administered with the carrier only. 4 hours after the operation the stomach was removed, the content thereof was centrifuged and the amount of free acid was determined by titration with 0.1N sodium hydroxide.

Series [4] has as its system hexobarbital narcosis. Briefly: narcosis potentiating effect (hexobarbital sleeping time). Particulars: mice, po.
Experimental: The narcosis potentiating effect of the compounds of the invention were examined on white mice, with 6 animals in each group. The mice were administered orally with the compounds of the invention, then both the control and the test groups were intravenously added 40 mg/kg of hexobarbital in order to make the mice sleep (Kaergard et al.).
Series [5] relates to white mice (CFLP strain). As to the kind of experiment: acute toxicity test in mice (Litchfield and Wilcoxon). It is filed as in vivo, mouse. The settings on record: po., 14 days observation. In outline:
(§1)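 CFLP white mice of both sexes (18-22 g, 10 per dose group) were dosed orally at a volume of 20 ml/kg. Animals had free access to water and feed. Toxicity data were calculated by the Litchfield and Wilcoxon method.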

The subject of series [6] is level of lipids. The settings on record: background art; cited from earlier work.
Series [7] relates to beta-adrenergic. The settings on record: background art; cited from earlier work.
The nature of series [8]: LD50 po. on rat. Particulars: in vivo.
Series [9] deals with aconitine-induced ECG alterations. Briefly: animal or person. The settings on record: for ED50 / change in vivo at 4 mg/kg / change in vivo at 100 mg/kg: Rattus norvegicus; for change in vivo at 4 mg/kg / change in vivo at 100 mg/kg: read-out: Effect % (antiarrhythmic). It counts as in vivo, rat. As to the method:
The test was carried out by using the modified method of Marmo et al. on rats weighing 160 to 200 g. The animals were narcotised by ethyl uretane (1.2 g/kg ip.). Aconitin was administered intravenously in a dose of 75 /ug/kg in the form of a bolus injection. The ECG alterations were monitored in standard II lead by 5 minutes after the administration of aconitine. The observed alterations were classified into classes 0 to 5. The compounds of the invention were administered 2 minutes or 60 minutes before the parenteral or oral administration of aconitine, respectively. […]
class 1: sometimes an extrasystole occurs class 2: each second one is an extrasystole class 3: extrasystoles in groups class 4: each one is an extrasystole class 5: fibrillation, death
(Marmo, E., DiGiacomo, S., Imperatore, A.: Arzeimittel-Forschung 20, 12/1970/)

Series [10] has as its system blood pressure. The settings on record: background art; cited from earlier work.
Series [11] concerns peristalty of stomach and intestines. Briefly: effect exerted on the peristalty of stomach and intestines (Stickney et al., carbon suspension). It counts as in vivo, mouse. Particulars: po., mice.
The nature of series [12]: absorption judged by ED50 per os/ED50 iv. The settings on record: in vivo. From the text: The compounds of formula I according to the invention can well be absorbed if administered either orally or parenterally.
Series [13] can be described thus: acute toxicity test in mice (Litchfield and Wilcoxon). It counts as in vivo, mouse. Particulars: mouse, in vivo, po., 14 days observation. In outline:
as §1

The mark [14] stands for this setting: iv, read-out: ED50 iv. (antiarrhythmic).
[15] abbreviates: po, read-out: ED50 (antiarrhythmic, per os).

What is called LD50 is the dose at which mortality reaches 50%. Higher therefore signals a less toxic substance. For the compound `CC(C)NCC(O)CO/N=C1\CCCC\C1=C/c1ccc(Cl)cc1` (stereo not shown) [Example 26, R,S-2-(E)-(4-Chlorophenyl-methylene)-1-(E)-[3-(1-methylethylamino)-2'-hydroxy-propoxyimino]-cyclohexane], in series [1], the “ED50 (antianginal)” value is “about 2.0 mg/kg”. In [2], this compound had an EC50 % of 0.22%. For the same compound, in series [2] (in a conc. of 0.5%), the Duration of effect is 49 min. Also, the “Inhibition of free acid, %” value stood at 66% in series [3] (dose 100 mg/kg po.) and 92% in [3] (dose 200 mg/kg po.). Further, the “TI (therapeutic index)” value in series [4] (narcosis potentiation) is given as more than 7. The “ED50 (narcosis potentiation)” value in series [4] (hexobarbital 40 mg/kg iv) came out at 140 mg/kg. Besides, the 50% lethal dose (LD50) entry in series [5] is “more than 1000 mg/kg”.

As to `OC(CON=Cc1ccc(Cl)cc1)CN1CCN(c2ccccc2Cl)CC1` (stereo not shown) [Peraclopone], the “reduction of the level of lipids” value in [6] is “reduces the level of lipids”.

For `CC(=NOCC(O)CNC(C)(C)C)C1CC1` (stereo not shown) [Falintolol], in series [7], the beta-adrenergic blocking effect result is listed as “exhibits beta-adrenergic blocking activity”.

As usually defined, the ED50 is the midpoint of the dose-response relation. As to `C=C[C@H]1C[N@@]2CC[C@H]1C[C@@H]2[C@@H](O)c1ccnc2ccc(OC)cc12` [Quinidine, reference compound], in series [8], the LD50 was 1130 mg/kg. The 50% effective dose (ED50) was 9.85 mg/kg in [9] (setting [14]) and approximately 100 mg/kg in series [9] (setting [15]). In series [9] (iv), the change in vivo at 4 mg/kg was -29%. Further, the change in vivo at 100 mg/kg in series [9] (po) was -52%.

Regarding `COc1cccc(C=NOCC(O)CN2CCN(c3ccccc3OC)CC2)c1` (stereo not shown) [Paradoxime], the “blood pressure reducing activity” value in series [10] is “shows blood pressure reducing activity”.

`CC(C)N(CC(O)CO/N=C1\CCCC\C1=C/c1ccccc1)C(C)C` (racemic) [Example 1, R,S-2-(E)-Phenylmethylene-1-(E)-{3-[bis-(1-methylethyl)-amino]-2-hydroxy-propoxyimino}-cyclohexane]: in series [8], the LD50 came out at 1760 mg/kg. Besides, in series [2], the EC50 % came to 0.04%. In addition, in series [3] (Rattus norvegicus, dose 200 mg/kg po., read-out: Inhibition of free acid, %), the inhibition in vivo at 200 mg/kg is 70%. In addition, the 50% effective dose (ED50) in [9] (iv, read-out: ED50 iv) is 1.21 mg/kg; in series [9] (setting [14]), 1.21 mg/kg; in [9] (setting [15]), 27.3 mg/kg; in series [9] (po, read-out: ED50 per os), 24.4 mg/kg; in series [11] (Mus musculus, read-out: ED50 (antiperistaltic)) it was approximately 80 mg/kg. Further, in series [9] (iv), the change in vivo at 4 mg/kg is -89.5%. Moreover, the change in vivo at 100 mg/kg in series [9] (po) was -100%. In addition, the “effect compared to the control compounds regarding the absolute dose” value in series [9] (administered orally) is recorded as “multiplied effect compared to the control compounds”. The “TI (therapeutic index)” value in series [9] (antiarrhythmic, per os, rat) is reported as 64.6; in series [11] (antiperistaltic) it was “about 5”. Also, the “therapeutical activity range, times higher than that of Quinidine” value in series [9] (per os, rats, vs Quinidine) is recorded as 5.8 times. In addition, in [12], the absorption ratio (ED50 po / ED50 iv) amounted to 20.6. Besides, the absorption entry in series [12] (po) was “much better than that of the cited compound of formula (e)”. In series [13], the LD50 at 336 h worked out at 400 mg/kg.

`CC(C)(C)NCC(O)CON=C1c2ccccc2-c2ccccc21` (stereo not shown) [IPS-339]: the beta-adrenergic blocking effect entry in series [7] was “exhibits beta-adrenergic blocking effect”.
